Data as given in publication PMC7155212 (Journal of Enzyme Inhibition and Medicinal Chemistry, 2020).

Biological target: BuChE (Equus caballus, UniProt P81908)
Assay: Kinetic characterisation of BuChE inhibition (Lineweaver-Burk)
Format: biochemical
Details: Lineweaver-Burk plot, Figure 1B
Experimental: (§1) To obtain the mechanism of action of 13, reciprocal plots of 1/velocity versus 1/[substrate] were constructed at different concentrations of the substrate […] by using Ellman’s method. Compound 13 was added to the assay solution and preincubated with the enzyme at 37 °C for 5 min, followed by the addition of the substrate. Kinetic characterisation catalysed by enzyme was achieved spectrometrically at 412 nm. A parallel control experiment was carried out without compound 13 in the mixture. Lineweaver–Burk plot was made based on the reaction rate and substrate concentration to determine the type of inhibition of the ChE by the compound.

BuChE, sequence (P81908 whole entry): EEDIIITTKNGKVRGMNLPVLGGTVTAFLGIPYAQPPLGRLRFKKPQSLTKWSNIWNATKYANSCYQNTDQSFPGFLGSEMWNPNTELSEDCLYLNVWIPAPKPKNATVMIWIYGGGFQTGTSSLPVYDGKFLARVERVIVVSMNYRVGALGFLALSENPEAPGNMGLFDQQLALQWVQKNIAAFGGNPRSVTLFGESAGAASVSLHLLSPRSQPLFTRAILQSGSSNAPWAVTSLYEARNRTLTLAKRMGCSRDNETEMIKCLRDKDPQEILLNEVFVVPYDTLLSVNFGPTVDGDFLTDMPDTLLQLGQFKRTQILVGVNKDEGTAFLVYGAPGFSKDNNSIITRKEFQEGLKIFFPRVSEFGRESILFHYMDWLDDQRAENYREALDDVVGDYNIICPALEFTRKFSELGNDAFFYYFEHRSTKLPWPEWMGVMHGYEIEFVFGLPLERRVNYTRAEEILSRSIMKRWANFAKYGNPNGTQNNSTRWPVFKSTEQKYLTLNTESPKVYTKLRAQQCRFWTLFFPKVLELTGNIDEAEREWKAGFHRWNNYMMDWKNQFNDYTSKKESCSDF

With `COc1cc2c(cc1O)C(c1ccc(OC)c(OC)c1)C(=O)O2` (centres unmarked) [Compound 13, 5-Hydroxy-6-methoxy-3–(3′,4′-dimethoxyphenyl)-benzofuranone] the “inhibition mode against BuChE” value was “reversible inhibition”.

Biological target: T1, MAO-B (Rattus norvegicus, UniProt P19643)
T1 construct: The crude enzyme was extracted from the liver of 200–250 g of Wistar rats; from tissue; host or cells: liver of Wistar rats (crude enzyme)
T1 sequence (P19643 1-520): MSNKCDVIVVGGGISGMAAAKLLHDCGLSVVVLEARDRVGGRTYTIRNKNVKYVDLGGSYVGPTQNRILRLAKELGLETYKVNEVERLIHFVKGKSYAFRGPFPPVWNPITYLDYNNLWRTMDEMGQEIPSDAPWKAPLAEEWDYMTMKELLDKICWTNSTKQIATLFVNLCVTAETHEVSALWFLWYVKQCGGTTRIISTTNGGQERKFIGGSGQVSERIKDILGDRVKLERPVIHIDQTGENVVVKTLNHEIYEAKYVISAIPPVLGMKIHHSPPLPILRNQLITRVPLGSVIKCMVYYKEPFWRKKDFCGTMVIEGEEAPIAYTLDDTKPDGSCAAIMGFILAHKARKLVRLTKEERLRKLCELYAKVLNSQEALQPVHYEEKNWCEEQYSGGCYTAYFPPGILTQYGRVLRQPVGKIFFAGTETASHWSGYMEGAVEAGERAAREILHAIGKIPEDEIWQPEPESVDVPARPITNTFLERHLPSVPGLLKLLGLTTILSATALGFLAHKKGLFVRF
Assay: In vitro MAO inhibitory activity (Holt method, crude enzyme from rat liver)
Format: biochemical, Wistar rat
Details: not given
Experimental: The MAO inhibitory activity of the 3-arylbenzofuranone compounds was determined by the method of Holt et al.[17] with slight modifications. The crude enzyme was extracted from the liver of 200–250 g of Wistar rats according to literature methods[18]^,[19]. The crude enzyme protein content was determined by the Bradford method using a Bradford Protein Assay Kit (Beyotime). The assay was performed in 0.2 M potassium phosphate buffer pH 7.6 on 96-well plates in 240 μl total volume. The chromogenic solution containing 1 mM vanillic acid, 0.5 mM 4-aminoantipyrine, and 4 U/ml horseradish peroxidase in 0.2 M potassium phosphate buffer pH 7.6 was mixed anew for each measurement. 40 μL of enzyme solution and 40 μL of sample solution were added to a 96-well plate. The solution was then incubated at 37 °C for 20 min. 120 μL of the 4-(trifluoromethyl) benzylamine solution and 40 μL of the chromogenic solution were added subsequently and incubated at 37 °C for 90 min. The absorbance was measured at 490 nm using a microplate reader, and the inhibition rate of MAO and the IC50 value of each sample were calculated according to the formula. The control group replaced the sample solution with PBS (0.2 M, pH = 7.6), the positive control replaced the sample with the positive drug, and the blank group replaced the substrate with PBS, and each group was measured three times in parallel to average. Monoamine oxidase inhibitory effect (%) = [(AC – AB) – (AS – ASB )]/(AC – AB)×100% where AC is the absorbance of control group; AB is the absorbance of blank group; AS is the absorbance of sample group; ASB is the absorbance of sample blank group.

First: COc1ccc(C2C(=O)Oc3cc(OC)c(OC)cc32)cc1OC (centres unmarked) [Compound 19, 5,6-Dimethoxy-3–(3′,4′-dimethoxyphenyl)-benzofuranone]
Second: COc1ccc2c(c1)OC(=O)C2c1ccc(OC)c(OC)c1 (centres unmarked) [Compound 9, 6-Methoxy-3–(3′,4′-dimethoxyphenyl)-benzofuranone]
The IC50 of the first is 2.4-fold lower: 146 ± 1.83 µM for the first, 354 ± 5.05 µM for the second.

Same assay, conditions: rat liver crude enzyme, 4-(trifluoromethyl)benzylamine substrate, mean ± SD (n = 3); read-out: IC50 value MAO-B inhibitory activity

Going from `COc1cc2c(cc1O)C(c1ccc(OC)c(OC)c1)C(=O)O2` (centres unmarked) [Compound 13, 5-Hydroxy-6-methoxy-3–(3′,4′-dimethoxyphenyl)-benzofuranone] to `COc1ccc(C2C(=O)Oc3c2ccc(OC)c3O)cc1OC` (centres unmarked) [Compound 12, 6-Methoxy-7-hydroxy-3–(3′,4′-dimethoxyphenyl)-benzofuranone], the IC50 rises from 11.2 ± 0.72 µM to 22.9 ± 0.73 µM (2-fold). The first is the more potent here.

Compared with `COc1ccc(C2C(=O)Oc3cc(OC)c(OC)cc32)cc1` (centres unmarked) [Compound 10, 5,6-Dimethoxy-3–(4′-methoxyphenyl)-benzofuranone], `COc1cc(C2C(=O)Oc3ccc(O)cc32)cc(OC)c1OC` (centres unmarked) [Compound 14, 5-Hydroxy-3–(3′,4′,5′-trimethoxyphenyl)-benzofuranone] is 7.1-fold lower in IC50: 493 ± 7.1 µM for the first, 69.7 ± 1.26 µM for the second. The second is the more potent here.

First: COc1ccc2c(c1O)OC(=O)C2c1cc(OC)c(OC)c(OC)c1 (centres unmarked) [Compound 22, 6-Methoxy-7-hydroxy-3–(3′,4′,5′-trimethoxyphenyl)-benzofuranone]
Second: COc1ccc2c(c1)C(c1ccc(OC)c(OC)c1OC)C(=O)O2 (centres unmarked) [Compound 17, 5-Methoxy-3–(2′,3′,4′-trimethoxyphenyl)-benzofuranone]
The IC50 of the first is 2.7-fold lower: 30.3 ± 0.65 µM for the first, 82.7 ± 1.31 µM for the second. The first is the more potent here.

Biological target: AChE (Electrophorus electricus, UniProt O42275)
Sequence (O42275 24-633): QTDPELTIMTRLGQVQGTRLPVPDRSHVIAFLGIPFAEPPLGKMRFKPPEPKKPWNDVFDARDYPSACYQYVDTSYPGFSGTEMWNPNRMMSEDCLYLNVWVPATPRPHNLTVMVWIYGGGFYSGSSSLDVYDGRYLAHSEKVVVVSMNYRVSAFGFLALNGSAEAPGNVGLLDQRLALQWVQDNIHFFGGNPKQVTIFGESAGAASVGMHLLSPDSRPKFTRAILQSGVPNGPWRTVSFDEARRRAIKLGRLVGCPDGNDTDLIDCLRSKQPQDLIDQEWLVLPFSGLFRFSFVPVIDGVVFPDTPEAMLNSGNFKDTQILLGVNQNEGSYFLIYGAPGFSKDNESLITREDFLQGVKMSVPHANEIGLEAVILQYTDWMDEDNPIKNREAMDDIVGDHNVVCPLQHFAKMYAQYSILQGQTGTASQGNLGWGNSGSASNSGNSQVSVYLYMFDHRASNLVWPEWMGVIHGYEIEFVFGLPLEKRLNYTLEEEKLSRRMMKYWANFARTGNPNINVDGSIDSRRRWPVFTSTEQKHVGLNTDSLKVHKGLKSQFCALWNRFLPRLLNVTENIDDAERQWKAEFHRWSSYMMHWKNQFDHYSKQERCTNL
Assay: Kinetic characterisation of AChE inhibition (Lineweaver-Burk)
Format: biochemical
Details: Lineweaver-Burk plot, Figure 1A
Experimental: as §1

For `COc1cc2c(cc1O)C(c1ccc(OC)c(OC)c1)C(=O)O2` (centres unmarked) [Compound 13, 5-Hydroxy-6-methoxy-3–(3′,4′-dimethoxyphenyl)-benzofuranone], the “inhibition mode against AChE” value was “reversible inhibition”.

Biological target: AChE from electric eel (Electrophorus electricus, UniProt O42275)
Sequence (O42275 24-633): as above
Assay: biochemical
Format: biochemical
Details: Ellman method, mean ± SD (n = 3), read-out: IC50 value AChE inhibitory activity
Experimental: (§2) The anticholinesterase activity of the 3-arylbenzofuranone compounds was determined by the method of Ellman et al.[16] with slight modifications. […] Acetylthiocholine iodide and butyrylthiocholine iodide were used as substrates respectively. 5,5′-Dithiobis(2-nitrobenzoic acid) (DTNB) was used as the chromophoric reagent. To a 96-well plate, 120 µL of phosphate buffer solution (0.1 M, pH = 8.0, PBS), 20 µL of DTNB (3.3 mM in 0.1 M PBS, pH = 8.0) were added sequentially, 20 µL AChE solution (0.2 U/mL in 0.1 M PBS, pH = 8.0), 20 µL of different concentrations of the sample solution, shaken well, and incubated at 37 °C for 5 min. Then, 20 µL of substrate (5 mM in 0.1 M PBS, pH = 8.0) were added, shaken well, and incubated at 37 °C for 20 min. […] BChE inhibitory activity was assessed similarly using butyrylthiocholine iodide as the substrate. The sample solution was set to five concentration gradients and the experiment was repeated three times. […] Cholinesterase inhibitory effect (%)=[A0−(A1−A2)]/A0×100% where A0 is the absorbance of blank group; A1 is the absorbance of sample group; A2 is the absorbance of sample blank group.

First: COc1ccc(C2C(=O)Oc3cc(OC)c(OC)cc32)cc1 (centres unmarked) [Compound 10, 5,6-Dimethoxy-3–(4′-methoxyphenyl)-benzofuranone]
Second: COc1ccc(C2C(=O)Oc3c2ccc(OC)c3O)cc1OC (centres unmarked) [Compound 12, 6-Methoxy-7-hydroxy-3–(3′,4′-dimethoxyphenyl)-benzofuranone]
The IC50 of the first is 5.5-fold higher: 28.7 ± 1.44 µM for the first, 5.25 ± 0.44 µM for the second.

Going from `COc1ccc2c(c1O)OC(=O)C2c1cc(OC)c(OC)c(OC)c1` (centres unmarked) [Compound 22, 6-Methoxy-7-hydroxy-3–(3′,4′,5′-trimethoxyphenyl)-benzofuranone] to `COc1cc(C2C(=O)Oc3ccc(O)cc32)cc(OC)c1OC` (centres unmarked) [Compound 14, 5-Hydroxy-3–(3′,4′,5′-trimethoxyphenyl)-benzofuranone], the IC50 rises from 2.03 ± 0.09 µM to 3.37 ± 0.17 µM (1.7-fold). The first is the more potent here.

`COc1ccc2c(c1)C(c1ccc(OC)c(OC)c1OC)C(=O)O2` (centres unmarked) [Compound 17, 5-Methoxy-3–(2′,3′,4′-trimethoxyphenyl)-benzofuranone] showed an IC50 of 42.3 ± 4.01 µM.

Same assay, conditions: IC50 value AChE inhibitory activity, Ellman method, mean ± SD (n = 3)

Compared with `COc1ccc(C2C(=O)Oc3cc(OC)c(OC)cc32)cc1OC` (centres unmarked) [Compound 19, 5,6-Dimethoxy-3–(3′,4′-dimethoxyphenyl)-benzofuranone], `COc1ccc2c(c1)OC(=O)C2c1ccc(OC)c(OC)c1` (centres unmarked) [Compound 9, 6-Methoxy-3–(3′,4′-dimethoxyphenyl)-benzofuranone] is 100-fold lower in IC50: 36.5 ± 0.51 µM for the first, 0.35 ± 0.03 µM for the second.

Biological target: BChE from equine serum (Equus caballus, UniProt P81908)
Sequence (P81908 whole entry): as the sequence (P81908 whole entry) above
Assay: biochemical
Format: biochemical
Details: not given
Experimental: as §2

`COc1ccc(C2C(=O)Oc3cc(OC)c(OC)cc32)cc1OC` (centres unmarked) [Compound 19, 5,6-Dimethoxy-3–(3′,4′-dimethoxyphenyl)-benzofuranone] and `COc1ccc2c(c1)OC(=O)C2c1ccc(OC)c(OC)c1` (centres unmarked) [Compound 9, 6-Methoxy-3–(3′,4′-dimethoxyphenyl)-benzofuranone] cannot be ordered by IC50: > 200 µM for the first, > 200 µM for the second.

Same assay, conditions: equine serum BChE, Ellman method, mean ± SD (n = 3); read-out: IC50 value BuChE inhibitory activity

Compared with `COc1ccc(C2C(=O)Oc3cc(OC)c(OC)cc32)cc1` (centres unmarked) [Compound 10, 5,6-Dimethoxy-3–(4′-methoxyphenyl)-benzofuranone], `COc1ccc(C2C(=O)Oc3c2ccc(OC)c3O)cc1OC` (centres unmarked) [Compound 12, 6-Methoxy-7-hydroxy-3–(3′,4′-dimethoxyphenyl)-benzofuranone] is lower in IC50: > 200 µM for the first, 180.9 ± 1.48 µM for the second.

First: COc1ccc2c(c1O)OC(=O)C2c1cc(OC)c(OC)c(OC)c1 (centres unmarked) [Compound 22, 6-Methoxy-7-hydroxy-3–(3′,4′,5′-trimethoxyphenyl)-benzofuranone]
Second: COc1cc(C2C(=O)Oc3ccc(O)cc32)cc(OC)c1OC (centres unmarked) [Compound 14, 5-Hydroxy-3–(3′,4′,5′-trimethoxyphenyl)-benzofuranone]
The IC50 of the first is higher: > 200 µM for the first, 128 ± 4.65 µM for the second.

With `COc1ccc2c(c1)C(c1ccc(OC)c(OC)c1OC)C(=O)O2` (centres unmarked) [Compound 17, 5-Methoxy-3–(2′,3′,4′-trimethoxyphenyl)-benzofuranone] the IC50 was > 200 µM.

Test system: not listed separately
Assay: In vitro antioxidant activity (DPPH radical scavenging)
Details: DPPH free radical scavenging, 30 min at 37 °C, mean ± SD (n = 3)
Experimental: The assay provides an assessment of the antioxidant activity due to free radical scavenging by measuring hydrogen atom (or one electron) donating activity. DPPH is a purple stable free radical that is reduced to a yellow-coloured diphenylpicryl hydrazine by an antioxidant. The spectrophotometric assay was carried out as described by the literature method with a slight modification. 100 μL of a sample solution was added to 100 μL of DPPH solution. Following 30 min of incubation at 37 °C and protection from light, the absorbance at 517 nm was determined using a microplate reader. Each group was measured three times in parallel to average. IC50 values were calculated. The percentage of DPPH radical scavenging rate of the target compound is calculated as follows: DPPH free radical scavenging effect (%)=[A0 – (A1−A2)]/A0×100% where A0 is the absorbance of blank group; A1 is the absorbance of sample group; A2 is the absorbance of sample blank group.

Going from `COc1cc2c(cc1O)C(c1ccc(OC)c(OC)c1)C(=O)O2` (centres unmarked) [Compound 13, 5-Hydroxy-6-methoxy-3–(3′,4′-dimethoxyphenyl)-benzofuranone] to `COc1ccc(C2C(=O)Oc3cc(OC)c(OC)cc32)cc1OC` (centres unmarked) [Compound 19, 5,6-Dimethoxy-3–(3′,4′-dimethoxyphenyl)-benzofuranone], the IC50 rises from 5.33 ± 0.08 µM to 12.6 ± 0.14 µM (2.4-fold).

`COc1ccc(C2C(=O)Oc3cc(OC)c(OC)cc32)cc1` (centres unmarked) [Compound 10, 5,6-Dimethoxy-3–(4′-methoxyphenyl)-benzofuranone] and `COc1ccc2c(c1)OC(=O)C2c1ccc(OC)c(OC)c1` (centres unmarked) [Compound 9, 6-Methoxy-3–(3′,4′-dimethoxyphenyl)-benzofuranone] are within 1.5-fold of each other in IC50: 13.89 ± 0.11 µM for the first, 17.2 ± 0.58 µM for the second.

Compared with `COc1ccc2c(c1O)OC(=O)C2c1cc(OC)c(OC)c(OC)c1` (centres unmarked) [Compound 22, 6-Methoxy-7-hydroxy-3–(3′,4′,5′-trimethoxyphenyl)-benzofuranone], `COc1ccc(C2C(=O)Oc3c2ccc(OC)c3O)cc1OC` (centres unmarked) [Compound 12, 6-Methoxy-7-hydroxy-3–(3′,4′-dimethoxyphenyl)-benzofuranone] is 4-fold lower in IC50: 6.44 ± 0.12 µM for the first, 1.6 ± 0.1 µM for the second.

First: COc1ccc2c(c1)C(c1ccc(OC)c(OC)c1OC)C(=O)O2 (centres unmarked) [Compound 17, 5-Methoxy-3–(2′,3′,4′-trimethoxyphenyl)-benzofuranone]
Second: COc1cc(C2C(=O)Oc3ccc(O)cc32)cc(OC)c1OC (centres unmarked) [Compound 14, 5-Hydroxy-3–(3′,4′,5′-trimethoxyphenyl)-benzofuranone]
The IC50 of the first is 5.7-fold higher: 29.2 ± 0.31 µM for the first, 5.11 ± 0.13 µM for the second.
